In test [1] the test system is spleen T lymphocytes cultured with dengue 2 virus. The test can be described thus: In vitro blastogenesis assay of spleen T lymphocytes from peptide-immunized mice. It counts as cell-based, BALB/c mice. The following applies: mice immunized with non-conjugated peptides; cells cultured with dengue 2 virus. The protocol:
T cells from 19-6 and 19-5 immunized mice proliferated in an in vitro blastogenesis assay when they were cultured with the dengue 2 virus. […] It could contain a T cell cryptic epitope, being recognized in the free form of peptide but not like a result of the immunodominant epitopes presentation and processing of the virus in a natural infection.
FIG. 5. Proliferative response to dengue 2 virus antigens (at concentrations of 10, 20 and 40 m g/ml) of spleen T cells from peptides-immunized mice 19-6, 19-5 and 20-2.

Test [2] relates to anti-peptide antibodies in sera of Dengue patients. Put plainly: Indirect ELISA to detect anti-peptide antibodies, human sera. Format: binding. The following applies: 118 sera of Dengue patients diluted 1/200; for Percentage of positivity of human sera to peptide: peptide coated at 10 µg/ml. The protocol:
Peptides 19-6, 20-1, 20-2, 20-3 were fixed to the plates in a 10 m g/ml concentration in coating buff they were incubated at 4 C. overnight Sera were added diluted 1/200 in PBS-Tween 20. Finally, total human /peroxidase anti-immunoglobuline conjugate was added, and subsequently, the substrate (orthophenylendiamine, H2O2, 0.05 M phosphate citrate buffer, pH 5) was added. The reading was carried out in an ELISA reader at 492 nm and the cut-off value for each peptide was determined.
The sera used were from subjects having viral clinical infection that was serologically diagnosed as Dengue by the techniques of Inhibition of the hemagglutination (Clarke, D. H. y Casals, J. 1958. Techniques for hemagglutination and hemagglutination—inhibition with Arthropod Borne Virus. Am. J. Trop. Med. Hyg. 7 p.561) and ELISA of inhibition (Vzquez, S., Fernndez, R. 1989. Utilizacin de un mtodo de ELISA de Inhibicin en el diagnstico serolgico de dengue. Rev. Cub. Med. Trop. 41(1) p18-26) for total anti-dengue antibodies.
The study induded 118 sera from patents of the epidemics occurred in Cuba 1981, Panama 1994 and Costa Rica 1994. Dengue virus 2 was isolated in these epidemics, besides serotype 1 and 4 in Costa Rica; they were classified according to the titers of inhibiting antibodies of hemagglutination in cases of primary and secondary infections.

In test [3] the test system is Dengue virus serotype 1 (D1). The test can be described thus: In vitro plaque-reduction neutralization test (PRNT) of anti-peptide sera, serotype D1. It counts as cell-based. The following applies: sera of Balb/c mice immunized with peptide-BSA conjugate; titer = dilution giving 50% plaque number reduction; BHK-21 cells.
Test [4] has as its system Dengue 2 virus (strain A 15). The test can be described thus: In vitro plaque-reduction neutralization test (PRNT) of anti-peptide sera, serotype D2. Format: cell-based. The note with it: sera of Balb/c mice immunized with peptide-BSA conjugate; titer = dilution giving 50% plaque number reduction; BHK-21 cells. How it is done:
Neutralization technique was carried out according to Morens (Morens, D. M. et al. 1985. Simplified plaque reduction neutralization assay for dengue viruses by semimicro methods in BHK-21 cells: Comparison of the BHK suspension test with standard plaque reduction neutralization. J. Clin. Microbiol. 22 p.250).
Dilutions of anti-peptide sera and of anti-BSA controls and negative sera from 1/10 to 1/640 were prepared. Each dilution of sera was put into contact with a dilution of the virus (strain A 15 of Dengue 2) having 15-20 PFU/50 ml.
The mixture was incubated at 37 C. during 1 hour. A total of 50 ml of each mixture were added in triplicate to BHK-21 cells in plates of 24 wells, and they were incubated in a CO2 incubator at 37 C. during 4 hours. Then, 0.5 ml of carboxymethylcellulose-containing medium were added, and it was incubated again for several days considering the viral serotype used. After these days tinction and the count of lysis plaques produced by the virus were carried out.
Titer was expressed in each case as the dilution at which it was obtained the 50% of plaque number reduction.

The subject of test [5] is Dengue virus serotype 3 (D3). The test can be described thus: In vitro plaque-reduction neutralization test (PRNT) of anti-peptide sera, serotype D3. It counts as cell-based. The note with it: sera of Balb/c mice immunized with peptide-BSA conjugate; titer = dilution giving 50% plaque number reduction; BHK-21 cells.
For test [6], the system named is Dengue virus serotype 4 (D4). Put plainly: In vitro plaque-reduction neutralization test (PRNT) of anti-peptide sera, serotype D4. It counts as cell-based. The note with it: sera of Balb/c mice immunized with peptide-BSA conjugate; titer = dilution giving 50% plaque number reduction; BHK-21 cells.
Test [7] deals with four Dengue virus serotypes. Put plainly: Induction of neutralizing antibodies (summary statement). Format: cell-based. The note with it: against the four Dengue virus serotypes; immunized mice. How it is done:
Peptides were inoculated in Balb/c mice both conjugated or not to a carrier protein. The sera obtained after immunization with the conjugated peptides were tested by in vitro neutralization by reducing the number of plaques and by ELISA. We also studied the active protection against a Dengue 2 viral challenge in the immunized mice.

Test [8] deals with live, mouse-adapted dengue-2 virus (strain A15). The test can be described thus: Protection assay, intracranial challenge of immunized mice. It counts as in vivo, Balb/c mice. The note with it: mice immunized with conjugated peptides; 100 LD50 intracranial; observed up to 21 days; Fisher's test, p<0,05. How it is done: Male Balb/c mice of 4-6 weeks old were immunized with 50 mg of the peptide-BSA conjugate intraperitoneally. In addition, two immunization schemes were performed, one with BSA and the other with PBS. A total of 4 inoculations were carried out, each of them 15 days apart. The Freund's Complete Adjuvant was used in the first doses, and the Freund's Incomplete Adjuvant in the others. A blood sample was extracted from the retro-orbital vein seven days after the last inoculation.
Mice were challenged 7 days after the last immunization by intracraneal injection with an dilution of 1/2500 (corresponding to 100 LD50 lethal doses) of live, mouse-adapted dengue-2 virus (strain A15). […] Data were tested for statistical significance using Fisher's test.

The subject of another test is synthetic peptides. Put plainly: ELISA of sera from mice immunized with fusion proteins, against the synthetic peptides. Format: binding. The following applies: mouse immunization with semipurified fusion proteins. The text has this:
Mouse immunization with PD33 and PD34 fusion proteins semipurified by a non-denaturalizing protocol, has elicited high titers against them in ELISA (up to 1/100 000), and at the same time antibodies with titers up to 1/4000 in ELISA against the synthetic peptides have been obtained.

Results on six molecules are retold here after US6383488B1, “Pre-M/M epitopes of dengue virus, synthetic peptides, chimeric proteins and their use” (priority 1997, dated 2002).

Entries after “also recorded” stand apart in the source; their conditions may differ.

Consider CEDTITYKCPLLRQNEPEDIDCW [B 20-2], for which the “Virus-specific proliferative response of spleen T lymphocytes” value (“Virus-specific proliferative response” below) in test [1] is given as “did not elicit a significant proliferative response”. In addition, in test [2], the “Average of the reactivity index (optical density of the sample/cut-off value)” value is on record as 1.57 and the “Percentage of positivity of human sera to peptide” value (“Percentage” for short) is 77.1%.

Turning to LETRTETWMSSEGAWKHAQRIE [B 20-3], the “Anti-peptide neutralization titer, D1” value in test [3] is 1/110. In test [4], the “Anti-peptide neutralization titer, D2” value is recorded as 1/80. Further, the “Anti-peptide neutralization titer, D3” value in test [5] is on record as 1/80. The “Anti-peptide neutralization titer, D4” value in test [6] is 1/80. In test [7], the “Induction of neutralizing antibody production” value is given as “able to induce neutralizing antibody production”. Also, in [2], the “Average of the reactivity index (optical density of the sample/cut-off value)” value is 1.49 and the “Percentage” value came out at 83.1%.

Take LTTRNGEPHMIVMRQEKGKSLLFKTGDGV [B 19-6]: in test [3], the “Anti-peptide neutralization titer, D1” value is listed as 1/100. The “Anti-peptide neutralization titer, D2” value in test [4] was 1/180. Besides, the “Anti-peptide neutralization titer, D3” value in [5] is on record as 1/60. For the same molecule, the “Anti-peptide neutralization titer, D4” value in test [6] is given as 1/160. The “Induction of neutralizing antibody production” value in test [7] is listed as “able to induce neutralizing antibody production”. The “Virus-specific proliferative response” value in test [1] is “Virus-specific proliferative responses were demonstrated; also recorded: proliferated”. In addition, the “Level of protection (survival) after Dengue 2 virus challenge” value (“Level of protection (survival)” for short) in [8] is listed as “statistically significant; also recorded: statistically significative level of protection”. For the same molecule, in test [2], the “Average of the reactivity index (optical density of the sample/cut-off value)” value was 1.07 and the “Percentage” value was determined as 56.8%.

With NSTSTWVTYGTCTTTGEHRREKRSV [B 20-1], in [8], the “Level of protection (survival)” value is recorded as “statistically significant; also recorded: statistically significative level of protection”. For the same molecule, in test [2], the “Average of the reactivity index (optical density of the sample/cut-off value)” value was found to be 1.52 and the “Percentage” value is listed as 79.6%.

Take “RQNEPEDIDCWCNSTSTWVTYGTCTTTGEHRREKRS [B 19-5]”: the “Virus-specific proliferative response” value in test [1] is recorded as “Virus-specific proliferative responses were demonstrated; also recorded: proliferated”. For the same molecule, the “Level of protection (survival)” value in test [8] is “statistically significant; also recorded: statistically significative level of protection”.

B1: PD33 (protein)
chain: MALVELKVPDIGGHENVDIIAVEVNVGDTIAVDDTLITLDLESVALTPHSGMGLETRAETWMSSEGAWKHAQRVESWILRNPRFLEMDVPAEVAGVVKEVKVKVGDKISEGGLIVVVEAEGTAAAPKAEAAAAPAQEAPKAAAPAPQAAQFGGSADAEYDVVVLGGGPGGYSAAFAAADEGLKVAIVERYKTLGGVCLNVGCIPSKALLHNAAVIDEVRHLAANGIKYPEPELDIDMLRAYKDGVVSRLTGGLAGMAKSRKVDVIQGDGQFLDPHHLEVSLTAGDAYEQAAPTGEKKIVAFKNCIIAAGSRVTKLPFIPEDPRIIDSSGALALKEVPGKLLIIGGGIIGLEMGTVYSTLGSRLDVVEMMDGLMQGADRDLVKVWQKQNEYRFDNIMVNTKTVAVEPKEDGVYVTFEGANAPKEPQRYDAVLVAAGRAPNGKLISAEKAGVAVTDRGFIEVDKQMRTNVPHIYAIGDIVGQPMLAHKAVHEGHVAAENCAGHKAYFDARVIPGVAYTSPEVAWVGETELSAKASGRKITKANFPWAASGRAIANGCDKPFTKLIFDAETGRIIGGGIVGPNGGDMIGEVCLAIEMGCDAADIGKTIHPHPTLGESIGMAAEVALGTCTDLPPQKKK
In the case of B1, the “ELISA antibody titers against the synthetic peptides” value in the test with synthetic peptides is reported as “up to 1/4000”.
